“And” between values parts separate entries of the source, which are not always exact repeats. Identical values can stand only once. Inconclusive results and toxic doses are left out.
Test system: L1210 leukemia ip in BDF1 mice, survival T/C
Test: NCI In Vivo Anticancer Drug Screen. Data for tumor model L1210 Leukemia (intraperitoneal) in B6D2F1 (BDF1) mice
Conditions: endpoint: mean survival time, higher = longer survival
How it was run: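 Ratio derived from survival: compound-dosed mice over vehicle-dosed mice, all bearing a transplantable tumor.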

[1] = dose: 100.0 mg/kg/injection, schedule: Q04DX003 (ip), vehicle: Klucel (hydroxypropylcellulose) (HPC)
[2] = dose: 100.0 mg/kg/injection, schedule: Q04DX002 (ip), vehicle: Klucel (hydroxypropylcellulose) (HPC)
[3] = dose: 200.0 mg/kg/injection, schedule: Q04DX002 (ip), vehicle: Klucel (hydroxypropylcellulose) (HPC)
[4] = dose: 100.0 mg/kg/injection, schedule: Q04DX003 (ip), vehicle: saline with Tween-80
[5] = dose: 200.0 mg/kg/injection, schedule: Q04DX003 (ip), vehicle: saline with Tween-80
[6] = dose: 400.0 mg/kg/injection, schedule: Q04DX003 (ip), vehicle: saline with Tween-80
[7] = dose: 100.0 mg/kg/injection, schedule: Q01DX001 (ip), vehicle: saline
[8] = dose: 400.0 mg/kg/injection, schedule: Q01DX001 (ip), vehicle: saline
[9] = dose: 50.0 mg/kg/injection, schedule: Q01DX009 (ip), vehicle: saline with Tween-80
[10] = dose: 100.0 mg/kg/injection, schedule: Q01DX009 (ip), vehicle: saline with Tween-80
[11] = dose: 100.0 mg/kg/injection, schedule: Q01DX009 (ip), vehicle: saline
[12] = dose: 12.5 mg/kg/injection, schedule: Q01DX009 (ip), vehicle: saline
[13] = dose: 25.0 mg/kg/injection, schedule: Q01DX009 (ip), vehicle: saline
[14] = dose: 50.0 mg/kg/injection, schedule: Q01DX009 (ip), vehicle: saline
[15] = dose: 50.0 mg/kg/injection, schedule: Q04DX003 (ip), vehicle: saline
[16] = dose: 100.0 mg/kg/injection, schedule: Q04DX003 (ip), vehicle: saline
[17] = dose: 100.0 mg/kg/injection, schedule: Q01DX009 (ip), vehicle: Klucel (hydroxypropylcellulose) (HPC)
[18] = dose: 200.0 mg/kg/injection, schedule: Q01DX009 (ip), vehicle: Klucel (hydroxypropylcellulose) (HPC)
[19] = dose: 400.0 mg/kg/injection, schedule: Q01DX009 (ip), vehicle: Klucel (hydroxypropylcellulose) (HPC)

SMILES: CC[C@]1(O)C[C@H](OC2CC(N(C)C)C(OC3CC(O)C(O)C(C)O3)C(C)O2)c2c(cc3c(c2O)C(=O)c2c(O)ccc(O)c2C3=O)[C@H]1C(=O)OC (stereo partly drawn)
- T/C (dose: 0.2 mg/kg/injection, schedule: Q04DX002 (ip), vehicle: Klucel (hydroxypropylcellulose) (HPC)): 104 % of control
- T/C (dose: 0.4 mg/kg/injection, schedule: Q01DX001 (ip), vehicle: Klucel (hydroxypropylcellulose) (HPC)): 108 % of control
- T/C (dose: 0.4 mg/kg/injection, schedule: Q04DX002 (ip), vehicle: Klucel (hydroxypropylcellulose) (HPC)): 114 % of control
- T/C (dose: 0.8 mg/kg/injection, schedule: Q01DX001 (ip), vehicle: Klucel (hydroxypropylcellulose) (HPC)): 105 % of control
- T/C (dose: 0.8 mg/kg/injection, schedule: Q04DX002 (ip), vehicle: Klucel (hydroxypropylcellulose) (HPC)): 107 % of control
- T/C (dose: 1.6 mg/kg/injection, schedule: Q01DX001 (ip), vehicle: Klucel (hydroxypropylcellulose) (HPC)): 111 % of control
- T/C (dose: 1.6 mg/kg/injection, schedule: Q04DX002 (ip), vehicle: Klucel (hydroxypropylcellulose) (HPC)): 107 % of control
- T/C (dose: 3.2 mg/kg/injection, schedule: Q01DX001 (ip), vehicle: Klucel (hydroxypropylcellulose) (HPC)): 116 % of control
- T/C (dose: 6.4 mg/kg/injection, schedule: Q01DX001 (ip), vehicle: Klucel (hydroxypropylcellulose) (HPC)): 120 % of control

SMILES: COc1cc([N+](=O)[O-])cc(C=O)c1O
- T/C (dose: 25.0 mg/kg/injection, schedule: Q04DX003 (ip), vehicle: Klucel (hydroxypropylcellulose) (HPC)): 92 % of control
- T/C (dose: 50.0 mg/kg/injection, schedule: Q04DX003 (ip), vehicle: Klucel (hydroxypropylcellulose) (HPC)): 92 % of control
- T/C [1]: 96 % of control and 101 % of control

SMILES: O=S(=O)(c1ccccc1)C1C2CCC(O2)C1S(=O)(=O)c1ccccc1 (stereo not drawn)
- T/C [2]: 103 % of control
- T/C [3]: 92 % of control
- T/C (dose: 400.0 mg/kg/injection, schedule: Q04DX002 (ip), vehicle: Klucel (hydroxypropylcellulose) (HPC)): 89 % of control

SMILES: COC1=C(N2CC2)C(=O)C(OC)=C(N2CC2)C1=O
- T/C (dose: 0.5 mg/kg/injection, schedule: Q01DX009 (ip), vehicle: carboxymethylcellulose (CMC)): 114 % of control
- T/C (dose: 1.0 mg/kg/injection, schedule: Q01DX009 (ip), vehicle: carboxymethylcellulose (CMC)): 124 % of control
- T/C (dose: 3.0 mg/kg/injection, schedule: Q01DX009 (ip), vehicle: carboxymethylcellulose (CMC)): 121 % of control

SMILES: CCOC(=O)CN1CC(=O)OC(C(Cl)(Cl)Cl)C1 (stereo not drawn)
- T/C [4]: 98 % of control
- T/C [5]: 90 % of control
- T/C [6]: 93 % of control

SMILES: O=C(O)c1c(O)c2cc(Cl)ccc2oc1=O
- T/C [7]: 98 % of control
- T/C [8]: 98 % of control

SMILES: Nc1ncnc2nc(-c3ccc(SCc4ccccc4)cc3)[nH]c12
- T/C [9]: 93 % of control and 89 % of control
- T/C (dose: 100.0 mg/kg/injection, schedule: Q01DX001 (ip), vehicle: saline with Tween-80): 91 % of control
- T/C [10]: 99 % of control and 103 % of control and 104 % of control
- T/C (dose: 100.0 mg/kg/injection, schedule: Q04DX002 (ip), vehicle: saline with Tween-80): 103 % of control
- T/C (dose: 200.0 mg/kg/injection, schedule: Q01DX001 (ip), vehicle: saline with Tween-80): 87 % of control
- T/C (dose: 200.0 mg/kg/injection, schedule: Q01DX009 (ip), vehicle: saline with Tween-80): 96 % of control and 103 % of control and 86 % of control
- T/C (dose: 200.0 mg/kg/injection, schedule: Q04DX002 (ip), vehicle: saline with Tween-80): 97 % of control and 100 % of control
- T/C (dose: 400.0 mg/kg/injection, schedule: Q01DX001 (ip), vehicle: saline with Tween-80): 91 % of control
- T/C (dose: 400.0 mg/kg/injection, schedule: Q04DX002 (ip), vehicle: saline with Tween-80): 94 % of control and 100 % of control

SMILES: O=NN(CCF)C(=O)Nc1c[nH]c(=O)[nH]c1=O
- T/C (dose: 20.0 mg/kg/injection, schedule: Q01DX001 (ip), vehicle: carboxymethylcellulose (CMC)): 178 % of control

SMILES: O=S(OCc1ccccc1)OCc1ccccc1
- T/C [11]: 98 % of control
- T/C (dose: 200.0 mg/kg/injection, schedule: Q01DX009 (ip), vehicle: saline): 104 % of control
- T/C (dose: 400.0 mg/kg/injection, schedule: Q01DX009 (ip), vehicle: saline): 91 % of control

SMILES: NC1CC[N-]CC1.NC1CC[N-]CC1.[Cl][Pt+2]([Cl])([Cl])[Cl]
- T/C [12]: 101 % of control
- T/C [13]: 101 % of control
- T/C [14]: 95 % of control
- T/C [15]: 106 % of control
- T/C [11]: 101 % of control
- T/C [16]: 104 % of control

SMILES: COc1cc(NS(=O)(=O)c2ccccc2)ccc1C
- T/C [17]: 92 % of control
- T/C [1]: 97 % of control
- T/C [18]: 91 % of control
- T/C (dose: 200.0 mg/kg/injection, schedule: Q04DX003 (ip), vehicle: Klucel (hydroxypropylcellulose) (HPC)): 90 % of control
- T/C [19]: 91 % of control
- T/C (dose: 400.0 mg/kg/injection, schedule: Q04DX003 (ip), vehicle: Klucel (hydroxypropylcellulose) (HPC)): 87 % of control

SMILES: CCCCCC1(C)OCC(C)(C)N1O (stereo not drawn)
- T/C [7]: 104 % of control
- T/C (dose: 200.0 mg/kg/injection, schedule: Q01DX001 (ip), vehicle: saline): 102 % of control
- T/C [8]: 111 % of control

SMILES: CCCCCCCCP(C)(=O)CCCCCCCC
- T/C [2]: 105 % of control
- T/C [3]: 102 % of control

SMILES: Nc1nc(Cl)c2[nH]cnc2n1
- T/C (dose: 0.25 mg/kg/injection, schedule: Q01DX009 (ip), vehicle: saline with Tween-80): 110 % of control
- T/C (dose: 0.5 mg/kg/injection, schedule: Q01DX009 (ip), vehicle: saline with Tween-80): 112 % of control
- T/C (dose: 1.0 mg/kg/injection, schedule: Q01DX009 (ip), vehicle: saline with Tween-80): 117 % of control
- T/C (dose: 6.0 mg/kg/injection, schedule: Q01DX009 (ip), vehicle: saline with Tween-80): 150 % of control
- T/C (dose: 8.8 mg/kg/injection, schedule: Q04DX003 (ip), vehicle: saline with Tween-80): 112 % of control
- T/C (dose: 13.0 mg/kg/injection, schedule: Q01DX009 (ip), vehicle: Klucel (hydroxypropylcellulose) (HPC)): 99 % of control
- T/C (dose: 20.0 mg/kg/injection, schedule: Q01DX009 (ip), vehicle: Klucel (hydroxypropylcellulose) (HPC)): 101 % of control
- T/C (dose: 30.0 mg/kg/injection, schedule: Q01DX009 (ip), vehicle: Klucel (hydroxypropylcellulose) (HPC)): 101 % of control
- T/C (dose: 30.0 mg/kg/injection, schedule: Q04DX003 (ip), vehicle: saline with Tween-80): 195 % of control
- T/C (dose: 37.5 mg/kg/injection, schedule: Q04DX009 (ip), vehicle: Klucel (hydroxypropylcellulose) (HPC)): 94 % of control
- T/C (dose: 44.0 mg/kg/injection, schedule: Q01DX009 (ip), vehicle: Klucel (hydroxypropylcellulose) (HPC)): 100 % of control
- T/C [9]: 107 % of control
- T/C (dose: 66.0 mg/kg/injection, schedule: Q01DX009 (ip), vehicle: Klucel (hydroxypropylcellulose) (HPC)): 104 % of control
- T/C (dose: 75.0 mg/kg/injection, schedule: Q04DX009 (ip), vehicle: Klucel (hydroxypropylcellulose) (HPC)): 104 % of control
- T/C [10]: 124 % of control
- T/C (dose: 150.0 mg/kg/injection, schedule: Q04DX009 (ip), vehicle: Klucel (hydroxypropylcellulose) (HPC)): 97 % of control

SMILES: Nc1ncnc2c1c(C(=O)NO)cn2C1OC(CO)C(O)C1O (stereo not drawn)
- T/C (dose: 6.25 mg/kg/injection, schedule: Q01DX009 (ip), vehicle: saline): 153 % of control
- T/C [12]: 156 % of control and 171 % of control
- T/C (dose: 25.0 mg/kg/injection, schedule: Q01DX005 (ip), vehicle: saline): 108 % of control

SMILES: CSc1ccc(OC(=O)Nc2ccccc2F)cc1
- T/C [9]: 108 % of control
- T/C [10]: 103 % of control

SMILES: CCOc1ccc(NC(=O)c2ccccc2Cl)cc1
- T/C [17]: 98 % of control
- T/C [18]: 95 % of control
- T/C [19]: 103 % of control

SMILES: CC(=O)Nc1ccc(OC(C)=O)cc1
- T/C [4]: 106 % of control
- T/C [5]: 106 % of control
- T/C [6]: 116 % of control

SMILES: O=C(Nc1ccc(Cl)c(Cl)c1)OCCCl
- T/C (dose: 75.0 mg/kg/injection, schedule: Q01DX001 (ip), vehicle: saline): 89 % of control
- T/C (dose: 150.0 mg/kg/injection, schedule: Q01DX001 (ip), vehicle: saline): 109 % of control

SMILES: C[N+](C)(C)C1(Cc2ccccc2)c2ccccc2-c2ccc(Br)cc21 (stereo not drawn)
- T/C [13]: 104 % of control
- T/C (dose: 25.0 mg/kg/injection, schedule: Q04DX003 (ip), vehicle: saline): 102 % of control
- T/C [14]: 95 % of control
- T/C [15]: 97 % of control
- T/C [11]: 94 % of control
- T/C [16]: 98 % of control and 100 % of control
